Counter-ions that a name gives are not always drawn.

A word on the inhibition: it is the share of the control response that was lost under treatment.

Assay [1] addresses T1, STAT 6 (Mus musculus, UniProt P52633).
T1 construct: An STAT 6 reporter cell CI/FW4 was constructed by the above operation; endogenous in cells; host or cells: CI/FW4 (FW4 cell stably carrying the pGL2-CI/bs luciferase reporter)
T1 sequence (P52633 1-837): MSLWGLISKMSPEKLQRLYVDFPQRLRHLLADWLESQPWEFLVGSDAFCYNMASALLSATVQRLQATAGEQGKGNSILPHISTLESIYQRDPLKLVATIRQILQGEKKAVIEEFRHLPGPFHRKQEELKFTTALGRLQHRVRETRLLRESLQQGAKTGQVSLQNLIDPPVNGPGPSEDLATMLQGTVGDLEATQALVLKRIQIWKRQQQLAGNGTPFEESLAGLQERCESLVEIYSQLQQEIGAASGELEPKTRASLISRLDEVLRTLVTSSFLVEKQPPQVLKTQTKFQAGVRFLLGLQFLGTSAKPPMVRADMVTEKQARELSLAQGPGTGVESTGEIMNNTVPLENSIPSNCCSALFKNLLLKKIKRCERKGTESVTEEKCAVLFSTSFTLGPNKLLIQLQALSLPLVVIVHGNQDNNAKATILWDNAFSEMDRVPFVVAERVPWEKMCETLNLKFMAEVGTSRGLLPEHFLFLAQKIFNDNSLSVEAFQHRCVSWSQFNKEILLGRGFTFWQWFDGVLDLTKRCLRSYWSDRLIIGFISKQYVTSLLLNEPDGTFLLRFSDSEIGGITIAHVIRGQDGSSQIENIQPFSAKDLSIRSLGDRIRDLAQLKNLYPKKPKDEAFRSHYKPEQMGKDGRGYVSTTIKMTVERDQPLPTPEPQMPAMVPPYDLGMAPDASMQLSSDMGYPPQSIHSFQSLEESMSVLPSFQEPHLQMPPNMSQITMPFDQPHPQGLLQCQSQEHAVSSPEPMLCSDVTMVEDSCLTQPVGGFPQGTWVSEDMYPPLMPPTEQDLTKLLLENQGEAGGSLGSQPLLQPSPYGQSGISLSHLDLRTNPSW
The assay can be described thus: STAT 6-dependent reporter activity (IL-4-stimulated CI/FW4 luciferase reporter cell). Type of assay: cell-based, human. The note with it: for inhibition at 0.1 µM / Inh (%) 0.1 μM: inhibition ratio at 0.1 μM compound; for inhibition at 0.1 µM / inhibition at 1 µM / Inh (%) 0.1 μM / Inh (%) 1 μM: IL-4-stimulated CI/FW4 cell, luciferase; for inhibition at 1 µM / Inh (%) 1 μM: inhibition ratio at 1 μM compound; for inhibition of STAT 6-dependent reporter activity (activity similar to the compounds of Table 26): CI/FW4 cell, 10 ng/ml human IL-4, luciferase. On the procedure:
Measurement of STAT 6-Dependent Reporter Activity 1) Construction of STAT 6 Reactive Reporter Plasmid A STAT 6 reporter plasmid pGL2-CI was prepared by the following method. […] Also, […] sequence DNA molecules (SEQ ID NOs:3 and 4) contained in the adenovirus major late promoter were annealed and inserted into BglII and HindIII sites of the same vector. Thereafter, pGL2-CI/bs was constructed by inserting the blasticidin resistance gene of pUCSV-BD (Funakoshi) into BamHI site of the constructed pGL2-CI. 2) Construction of STAT 6 Reporter Cell Gene transfer of […] into a human IL-4 reactive cell FW4 cell (Mol. Cell. Biol., 14: 5433-5440) was carried out by the electroporation method (320 V, 960 μF/0.4 cm cuvette (Nippon Bio-Rad Laboratories)), and 6 μg/ml of blasticidin (Funakoshi) was added 40 hours thereafter to select a resistant cell. Confirmation of constant transfer of the reporter plasmid was carried out by detecting luciferase induce by IL-4 stimulation. An STAT 6 reporter cell CI/FW4 was constructed by the above operation. 3) STAT Reporter Assay Using CI/FW4 Cell Stimulation of the CI/FW4 cell (1×10^4 cells/0.1 ml) with 10 ng/ml of human IL-4 (Genzyme Techne) was carried out using a white 96 well plate (Nunc). In the case of the evaluation of compounds, compound dilutions were added to the wells before inoculating the cells into the 96 well plate. […] Thereafter, 50 μl of a luciferase substrate solution (10 mM Tris-HCl pH 7.8, 5 mM luciferin, 2 mM coenzyme A, 2 mM ATP, 0.5 mM MgCl2 and 2 mM Mg(OH)2) was added, followed by stirring for 1 minute. Then, the luciferase activity was measured using ML3000 luminometer (Dynatech Laboratories, Inc). Inhibitory activities of tested compounds were evaluated in which the luminescence intensity (relative light unit: […] The results are shown in the following Table 26.
On the technique in general: A reporter such as luciferase makes a cellular process visible.

Assay [2] concerns the target T2, STAT 6 (Homo sapiens, UniProt P42226).
T2 construct: host or cells: H292
T2 sequence (P42226 1-847): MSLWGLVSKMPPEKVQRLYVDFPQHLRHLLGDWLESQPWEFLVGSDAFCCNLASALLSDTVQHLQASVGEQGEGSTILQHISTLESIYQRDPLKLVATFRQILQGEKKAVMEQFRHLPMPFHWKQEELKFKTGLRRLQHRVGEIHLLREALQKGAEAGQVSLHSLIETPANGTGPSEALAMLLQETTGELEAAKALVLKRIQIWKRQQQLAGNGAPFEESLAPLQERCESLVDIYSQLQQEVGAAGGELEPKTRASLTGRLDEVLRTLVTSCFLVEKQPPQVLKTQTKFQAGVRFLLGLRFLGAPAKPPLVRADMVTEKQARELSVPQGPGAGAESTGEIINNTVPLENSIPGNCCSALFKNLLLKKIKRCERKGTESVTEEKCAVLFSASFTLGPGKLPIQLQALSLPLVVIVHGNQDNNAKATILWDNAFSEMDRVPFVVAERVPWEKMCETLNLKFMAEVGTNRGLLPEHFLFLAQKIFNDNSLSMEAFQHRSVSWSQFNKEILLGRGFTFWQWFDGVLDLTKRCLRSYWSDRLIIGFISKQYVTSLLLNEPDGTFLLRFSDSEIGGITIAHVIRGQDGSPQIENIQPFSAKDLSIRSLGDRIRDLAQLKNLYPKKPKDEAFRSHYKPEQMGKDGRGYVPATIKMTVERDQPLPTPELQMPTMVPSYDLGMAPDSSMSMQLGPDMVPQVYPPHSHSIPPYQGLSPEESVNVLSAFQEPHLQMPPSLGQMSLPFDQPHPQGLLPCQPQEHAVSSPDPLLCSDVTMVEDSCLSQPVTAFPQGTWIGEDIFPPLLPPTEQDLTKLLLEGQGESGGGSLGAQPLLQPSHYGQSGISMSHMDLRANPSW
Nature of the assay: STAT 6 tyrosine phosphorylation in IL-4-stimulated H292 cell (western blotting). Format: cell-based. The conditions noted are these: 1 μM compound, 10 ng/ml human IL-4, disappearance of the about 110 kDa band. The protocol:
Measurement of STAT 6 Tyrosine Phosphorylation
The H292 cell (ATCC) (5×10^5 cells/0.5 ml) was inoculated into a 12 well plate (IWAKI) and cultured overnight, and then stimulation with 10 ng/ml of human IL-4 (Genzyme techne) was carried out. In the case of the evaluation of compounds, compound dilutions were added to the wells 20 minutes before the IL-4 stimulation. Also, regarding the dilution of compounds, dilution was carried out using 10% FBS-containing RPMI 1640 such that the final concentration of DMSO in which each compound was dissolved became 0.1% or less. This was washed three times with ice-cooled physiological phosphate buffer 20 minutes after the IL-4 stimulation. After the washing, 100 μl/well of a cell lysis solution (TNE buffer: 10 mM Tris-HCl pH 7.8, 1% NP-40, 0.15 M NaCl, 1 mM EDTA, 10 μg/ml aprotinin, 1 mM NaF and 1 mM Na3VO4) was added. The cell lysate was recovered, and 15 μl thereof was subjected to western blotting after SDS electrophoresis using an anti-tyrosine phosphorylated STAT 6 antibody (Cell Signaling). Whether or not the tyrosine phosphorylation band of about 110 kDa is disappeared, which is IL-4 stimulation-dependently detected, was judged. Also, uniform transference of the STAT 6 protein was confirmed using the same transfer membrane by western blotting which used an anti-STAT 6 antibody (SantaCruz).

With `CNC(=O)c1cnc(NCCc2cc(Cl)c(O)c(Cl)c2)nc1Nc1cccc(C)c1` [Example 2, 2-{[2-(3,5-dichloro-4-hydroxyphenyl)ethyl]amino}-N-methyl-4-[(3-methylphenyl)amino]pyrimidine-5-carboxamide], at STAT 6 [1], the inhibition at 0.1 µM was 48% and the inhibition at 1 µM turned out to be 96%.
Regarding `NC(=O)c1cnc(Nc2ccc(N3CCOCC3)cc2)nc1NCc1cc(Cl)ccc1F` [Example 39], at STAT 6 [1], the “Inh (%) 0.1 μM” value is on record as 100% and the “Inh (%) 1 μM” value is 100%.
`NC(=O)c1cnc(Nc2ccc(N3CCOCC3)cc2)nc1NCc1c(F)cccc1Cl` [Example 58]: the “inhibition of STAT 6-dependent reporter activity (activity similar to the compounds of Table 26)” value at STAT 6 [1] is given as “good activity”.
`CN(C)CC(=O)N1CCN(c2ccc(Nc3ncc(C(N)=O)c(NCc4ccccc4)n3)cc2)CC1.Cl.Cl` [Example 148]: at STAT 6 [1], the “Inh (%) 0.1 μM” value stood at 94% and the “Inh (%) 1 μM” value was 100%. In addition, the “inhibition of STAT 6 tyrosine phosphorylation” value on STAT 6 [2] is “completely inhibited”.
On to `CN(CC1CN(c2ccc(Nc3ncc(C(N)=O)c(NCc4ccccc4)n3)cc2)CCO1)S(C)(=O)=O.Cl` (stereo not drawn) [Example 180], for which, at STAT 6 [1], the “Inh (%) 0.1 μM” value was determined as 91% and the “Inh (%) 1 μM” value came to 100%.
In the case of `CCOC(=O)CN1CCN(c2ccc(Nc3ncc(C(N)=O)c(NCc4c(F)ccc(F)c4F)n3)cc2)CC1` [Example 189], on STAT 6 [1], the “Inh (%) 0.1 μM” value is 100% and the “Inh (%) 1 μM” value was found to be 100%. For the same compound, at STAT 6 [2], the “inhibition of STAT 6 tyrosine phosphorylation” value was “completely inhibited”.
Consider `NC(=O)c1cnc(Nc2ccc(N3CCN(CC(=O)O)CC3)cc2)nc1NCc1c(F)ccc(F)c1F` [Example 190], for which, at STAT 6 [1], the “Inh (%) 0.1 μM” value was 100% and the “Inh (%) 1 μM” value turned out to be 100%. Besides, the “inhibition of STAT 6 tyrosine phosphorylation” value on STAT 6 [2] is on record as “completely inhibited”.
For the compound `Cl.NC(=O)c1cnc(Nc2ccc(N3CCCOCC3)cc2)nc1NCc1c(F)ccc(F)c1F` [Example 191], on STAT 6 [1], the “Inh (%) 0.1 μM” value is recorded as 100% and the “Inh (%) 1 μM” value turned out to be 100%. Moreover, the “inhibition of STAT 6 tyrosine phosphorylation” value against STAT 6 [2] is “completely inhibited”.
In the case of `COC1CCCN(c2ccc(Nc3ncc(C(N)=O)c(NCc4c(F)ccc(F)c4F)n3)cc2)C1.Cl.Cl` (stereo not drawn) [Example 192], on STAT 6 [1], the “Inh (%) 0.1 μM” value worked out at 100% and the “Inh (%) 1 μM” value is on record as 100%. In addition, at STAT 6 [2], the “inhibition of STAT 6 tyrosine phosphorylation” value is “completely inhibited”.
`Cl.Cl.NC(=O)CN1CCN(c2ccc(Nc3ncc(C(N)=O)c(NCc4c(F)ccc(F)c4F)n3)cc2)CC1` [Example 201]: on STAT 6 [1], the “Inh (%) 0.1 μM” value came out at 100% and the “Inh (%) 1 μM” value is listed as 100%. Also, the “inhibition of STAT 6 tyrosine phosphorylation” value at STAT 6 [2] was “completely inhibited”.
Take `NC(=O)c1cnc(Nc2ccc(OC3OC(CO)C(O)C(O)C3O)cc2)nc1NCc1c(F)ccc(F)c1F` (stereo not drawn) [Example 233]: at STAT 6 [1], the “Inh (%) 0.1 μM” value is 25% and the “Inh (%) 1 μM” value came out at 100%.
`NC(=O)c1cnc(Nc2ccc(N3CCOCC3)c(F)c2)nc1NCc1ccccc1` [Example 239]: at STAT 6 [1], the “inhibition of STAT 6-dependent reporter activity (activity similar to the compounds of Table 26)” value is given as “good activity”.
On to `NC(=O)c1cnc(Nc2ccc(N3CCOCC3)c(F)c2)nc1NCc1c(F)cccc1F` [Example 244], for which, at STAT 6 [1], the “Inh (%) 0.1 μM” value is reported as 97% and the “Inh (%) 1 μM” value is on record as 100%.
With `Cc1cccc(Nc2nc(NCCc3ccc(O)c(Br)c3)ncc2C(N)=O)c1` [Production Example 1, 2-{[2-(3-bromo-4-hydroxyphenyl)ethyl]amino}-4-[(3-methylphenyl)amino]pyrimidine-5-carboxamide], at STAT 6 [1], the inhibition at 0.1 µM is 67% and the inhibition at 1 µM stood at 100%.
Consider `Cc1cccc(Nc2nc(Nc3ccc(CN(C)C)cc3)ncc2C(N)=O)c1` [Production Example 9, 2-({4-[(dimethylamino)methyl]phenyl}amino)-4-[(3-methylphenyl)amino]pyrimidine-5-carboxamide dihydrochloride], for which, on STAT 6 [1], the inhibition at 0.1 µM turned out to be 33% and the inhibition at 1 µM stood at 91%.
Regarding `NC(=O)c1cnc(Nc2ccc(N3CCOCC3)cc2)nc1NC1CCCCC1` [Production Example 12, 4-cyclohexylamino-2-[(4-morpholinophenyl)amino]pyrimidine-5-carboxamide], at STAT 6 [1], the inhibition at 0.1 µM is 91% and the inhibition at 1 µM is 100%.

The record behind these values is patent publication US8012959B2, “Diaminopyrimidinecarboxamide derivative” (Astellas Pharma Inc., priority 2002, dated 2011).
